Literature values as cited in patent US20100209356A1, “CONTRAST AGENTS” (priority 2007, published 2010).

Conditions: high risk patients; iodixanol compared with a low-osmolar, non-ionic contrast medium

CC(=O)N(CC(O)CN(C(C)=O)c1c(I)c(C(=O)NCC(O)CO)c(I)c(C(=O)NCC(O)CO)c1I)c1c(I)c(C(=O)NCC(O)CO)c(I)c(C(=O)NCC(O)CO)c1I (stereo not shown) [iodixanol]
nephropathy induced by contrast medium: less likely to develop
